Experimental data taken from paper PMC9297786 (Molecular Oncology, 2022).
Counter-ions that a name gives are not always drawn.

The compounds below were run on K562 (assay: cells). Conditions: 48 h; inhibitor.
Parameters: MTT cell growth inhibition assay, absorbance at 490 nm
Protocol: Exponential‐phase cells were seeded into 96‐well plates at a density of 2 × 10^4 cells per well in complete medium. After 24 h, cells were treated with drugs at indicated concentrations and incubated for 48 h. Fresh medium containing 20 μL MTT solution (5 mg·mL^−1) was then added to each well. Then plates were incubated for another 4 h at 37 °C. After removing the medium, 150 μL DMSO was added to each well. The absorbance was recorded at 490 nm in the microplate reader and the inhibition ratio (I%) was calculated. The cell growth assay was conducted as described previously. K562 cells were cultured in IMDM containing 10% fetal bovine serum, 100 U·mL^−1 penicillin and 100 U·mL^−1 streptomycin. […] MEG‐01 cells were cultured in DMEM containing 10% fetal bovine serum, 100 U·mL^−1 penicillin and 100 U·mL^−1 streptomycin. […] Cells were grown at 37 °C in a humidified atmosphere with 5% CO2. […] To identify an EPHB4‐specific inhibitor with a potential of rapid translation into clinic, a pool of clinically approved TKIs and compounds was screened in this study (Fig. S2 and Table S4).

Q: How did the “Inhibition rate (%, 10 μM)” value turn out when CN1CC[C@]23c4c5ccc(O)c4O[C@H]2[C@@H](O)C=C[C@H]3[C@H]1C5 [morphine] was run?
A: -46.72%

Same assay, conditions: Homo sapiens, K562, 48 h, read-out: Inhibition rate (%, 10 μM)

Q: Nc1nc2c(ncn2COCCO)c(=O)[nH]1 [acyclovir] was tested. Which inhibition at 10 µM did it give?
A: -42.6%

Q: How did the inhibition at 10 µM turn out when CN(C)C/C=C/C(=O)Nc1cc2c(Nc3ccc(F)c(Cl)c3)ncnc2cc1O[C@H]1CCOC1 [afatinib] was run?
A: 78.6%

Q: For COc1cc2nc(N(C)CCCNC(=O)C3CCCO3)nc(N)c2cc1OC (stereo not drawn) [alfuzosin], which inhibition at 10 µM is on record?
A: -37.2%

Q: NC12CC3CC(CC(C3)C1)C2 [amantadine] was tested. Which inhibition at 10 µM did it give?
A: -58.8%

Q: CCOC(=O)C1=C(COCCN)NC(C)=C(C(=O)OC)C1c1ccccc1Cl (stereo not drawn) [amlodipine] was tested. Which inhibition at 10 µM did it give?
A: -59.8%

Q: COc1ccc(C[C@H]2COC(=O)[C@@H]2Cc2ccc(O[C@@H]3O[C@H](CO)[C@@H](O)[C@H](O)[C@H]3O)c(OC)c2)cc1OC [arctiin] was tested. Which inhibition at 10 µM did it give?
A: -62.6%

Q: For C=C1C(=O)O[C@@]23[C@H]1CC[C@@H](C)[C@@H]2CC[C@@]1(C)O[C@@H]31 [arteannuin b], which inhibition at 10 µM is on record?
A: -8.46%

Q: With C[C@@H]1CC[C@H]2[C@@H](C)C(=O)O[C@@H]3O[C@@]4(C)CC[C@@H]1[C@]32OO4 [artemisinin] as the compound, how does the inhibition at 10 µM read?
A: -161%

Q: With CN1CCCC(n2nc(Cc3ccc(Cl)cc3)c3ccccc3c2=O)CC1 (stereo not drawn) [azelastine] as the compound, how does the inhibition at 10 µM read?
A: -74.3%

Q: For O=C(O)[C@H]1O[C@@H](Oc2cc3oc(-c4ccccc4)cc(=O)c3c(O)c2O)[C@H](O)[C@@H](O)[C@@H]1O [baicalin], which inhibition at 10 µM is on record?
A: -31%

Q: Which inhibition at 10 µM does the source give for CN(C)C(=O)Oc1cc(OC(=O)N(C)C)cc(C(O)CNC(C)(C)C)c1 (stereo not drawn) [bambuterol] here?
A: -43.1%

Q: How did the inhibition at 10 µM turn out when COc1ccc2cc3[n+](cc2c1OC)CCc1cc2c(cc1-3)OCO2 [berberine] was run?
A: 49.8%

Q: With COC(=O)CCc1ccc(OCC(O)CNC(C)C)cc1 (stereo not drawn) [brevibloc] as the compound, how does the inhibition at 10 µM read?
A: -12.6%

Q: CC(NC(C)(C)C)C(=O)c1cccc(Cl)c1 (stereo not drawn) [bupropion] was tested. Which inhibition at 10 µM did it give?
A: -48.5%

Q: Which inhibition at 10 µM does the source give for COc1cc2nccc(Oc3ccc(NC(=O)C4(C(=O)Nc5ccc(F)cc5)CC4)cc3)c2cc1OC [cabozantinib] here?
A: 90.1%

Q: Which inhibition at 10 µM does the source give for CCOc1nc2cccc(C(=O)O)c2n1Cc1ccc(-c2ccccc2-c2nnn[nH]2)cc1 [candesartan] here?
A: -49.7%

Q: With CN(C)CCC(c1ccc(Cl)cc1)c1ccccn1 (stereo not drawn) [chlorpheniramine] as the compound, how does the inhibition at 10 µM read?
A: -42.9%

Q: Which inhibition at 10 µM does the source give for O=C(O)c1cn(C2CC2)c2cc(N3CCNCC3)c(F)cc2c1=O [ciprofloxacin] here?
A: -3.17%

Q: For CC(C)NCC(O)c1ccccc1Cl (stereo not drawn) [clorprenaline], which inhibition at 10 µM is on record?
A: -36.2%

Q: COc1ccc2c3c1O[C@H]1[C@@H](O)C=C[C@H]4[C@@H](C2)N(C)CC[C@@]341 [codeine] was tested. Which inhibition at 10 µM did it give?
A: -64%

Q: How did the inhibition at 10 µM turn out when C[C@H]1COC2=C1C(=O)C(=O)c1c2ccc2c1CCCC2(C)C [cryptotanshinone] was run?
A: -72.9%

Q: C[C@@H]1C(=O)O[C@H](C)[C@H]1C[C@@H](O)[C@](C)(O)[C@H]1CC[C@@]2(O)C3=CC(=O)[C@@H]4C[C@@H](O)[C@@H](O)C[C@]4(C)[C@H]3CC[C@]12C [cyasterone] was tested. Which inhibition at 10 µM did it give?
A: -50.6%

Q: CN1CCC(=C2c3ccccc3C=Cc3ccccc32)CC1 [cyproheptadine] was tested. Which inhibition at 10 µM did it give?
A: -38.4%

Q: For COc1ccc2c(c1OC)CN1CCc3cc4c(cc3C1=C2)OCO4 [dihydroberberine], which inhibition at 10 µM is on record?
A: 30.6%

Q: CN(C)CCOC(c1ccccc1)c1ccccc1 [diphenhydramine] was tested. Which inhibition at 10 µM did it give?
A: -37.9%

Q: With O=c1[nH]c2ccccc2n1CCCN1CCC(n2c(=O)[nH]c3cc(Cl)ccc32)CC1 [domperidone] as the compound, how does the inhibition at 10 µM read?
A: -38.6%

Q: How did the inhibition at 10 µM turn out when NCCc1ccc(O)c(O)c1 [dopamine] was run?
A: -62.3%

Q: With COc1cc2nc(N3CCN(C(=O)C4COc5ccccc5O4)CC3)nc(N)c2cc1OC (stereo not drawn) [doxazosin] as the compound, how does the inhibition at 10 µM read?
A: -84.5%

Q: Which inhibition at 10 µM does the source give for CN(C)CCC=C1c2ccccc2COc2ccccc21 [doxepin] here?
A: -54.9%

Q: For Cc1cc(O)c2c(c1)C(=O)c1cc(O)cc(O)c1C2=O [emodin], which inhibition at 10 µM is on record?
A: 6.9%

Q: How did the inhibition at 10 µM turn out when CN[C@@H](C)[C@H](O)c1ccccc1 [ephedrine hydrochloride] was run?
A: -29%

Q: How did the inhibition at 10 µM turn out when C#Cc1cccc(Nc2ncnc3cc(OCCOC)c(OCCOC)cc23)c1 [erlotinib] was run?
A: 3.52%

Q: With CC(Cc1ccc(O)cc1)NCC(O)c1cc(O)cc(O)c1 (stereo not drawn) [fenoterol] as the compound, how does the inhibition at 10 µM read?
A: -62%

Q: For CC(=O)Oc1ccc2c3c1O[C@H]1[C@@H](OC(C)=O)C=C[C@H]4[C@@H](C2)N(C)CC[C@@]341 [heroin], which inhibition at 10 µM is on record?
A: -30.2%

Q: With COC(=O)C[C@](O)(CCCC(C)(C)O)C(=O)O[C@@H]1C(OC)=C[C@]23CCCN2CCc2cc4c(cc2[C@H]13)OCO4 [homoharringtonine] as the compound, how does the inhibition at 10 µM read?
A: 68.7%

Q: Which inhibition at 10 µM does the source give for CC(C)=CCOc1c2occc2cc2ccc(=O)oc12 [imperatorin] here?
A: -7.73%

Q: CC(C)(C)NC(=O)[C@@H]1CN(Cc2cccnc2)CCN1C[C@@H](O)C[C@@H](Cc1ccccc1)C(=O)N[C@H]1c2ccccc2C[C@H]1O [indinavir] was tested. Which inhibition at 10 µM did it give?
A: -52.2%

Q: Which inhibition at 10 µM does the source give for CCCCC1=NC2(CCCC2)C(=O)N1Cc1ccc(-c2ccccc2-c2nnn[nH]2)cc1 [irbesartan] here?
A: -56.4%

Q: For CC(C)=CCOc1c2ccoc2cc2oc(=O)ccc12 [isoimperatorin], which inhibition at 10 µM is on record?
A: -85.9%

Q: O=C(/C=C/c1ccc(O)cc1)c1ccc(O)cc1O [isoliquiritigenin] was tested. Which inhibition at 10 µM did it give?
A: -123%

Q: For CS(=O)(=O)CCNCc1ccc(-c2ccc3ncnc(Nc4ccc(OCc5cccc(F)c5)c(Cl)c4)c3c2)o1 [lapatinib], which inhibition at 10 µM is on record?
A: 98.8%

Q: Which inhibition at 10 µM does the source give for CCN(CC)CC(=O)Nc1c(C)cccc1C [lidocaine] here?
A: -38.5%

Q: For CCCCc1nc(Cl)c(CO)n1Cc1ccc(-c2ccccc2-c2nnn[nH]2)cc1 [losartan], which inhibition at 10 µM is on record?
A: -72.9%

Q: How did the inhibition at 10 µM turn out when Cc1nnc(C(C)C)n1[C@@H]1C[C@H]2CC[C@@H](C1)N2CC[C@H](NC(=O)C1CCC(F)(F)CC1)c1ccccc1 [maraviroc] was run?
A: -56.3%

Q: CC(=O)Oc1c(C)cc(OCC(O)CNC(C)C)c(C)c1C (stereo not drawn) [metipranolol] was tested. Which inhibition at 10 µM did it give?
A: -26.8%

Q: CN(c1nccc(=O)[nH]1)C1CCN(c2nc3ccccc3n2Cc2ccc(F)cc2)CC1 [mizolastine] was tested. Which inhibition at 10 µM did it give?
A: -89.1%

Q: For COc1ccc([C@@H]2CC(=O)c3c(O)cc(O[C@@H]4O[C@H](CO)[C@@H](O)[C@H](O)[C@H]4O[C@@H]4O[C@@H](C)[C@H](O)[C@@H](O)[C@H]4O)cc3O2)cc1O [neohesperidin], which inhibition at 10 µM is on record?
A: -49.4%

Q: How did the inhibition at 10 µM turn out when Cc1ccnc2c1NC(=O)c1cccnc1N2C1CC1 [nevirapine] was run?
A: -47%

Q: Which inhibition at 10 µM does the source give for COC(=O)C1=C(C)NC(C)=C(C(=O)OCCN(C)Cc2ccccc2)C1c1cccc([N+](=O)[O-])c1 (stereo not drawn) [nicardipine] here?
A: -74.2%

Q: For COC(=O)C1=C(C)NC(C)=C(C(=O)OC)C1c1ccccc1[N+](=O)[O-] [nifedipine], which inhibition at 10 µM is on record?
A: 6.88%

Q: With Cc1cn(-c2cc(NC(=O)c3ccc(C)c(Nc4nccc(-c5cccnc5)n4)c3)cc(C(F)(F)F)c2)cn1 [nilotinib] as the compound, how does the inhibition at 10 µM read?
A: 71.7%

Q: How did the inhibition at 10 µM turn out when COCCOC(=O)C1=C(C)NC(C)=C(C(=O)OC(C)C)C1c1cccc([N+](=O)[O-])c1 (stereo not drawn) [nimodipine] was run?
A: -69.7%

Q: Which inhibition at 10 µM does the source give for CCOC(=O)C1=C(C)NC(C)=C(C(=O)OC)C1c1cccc([N+](=O)[O-])c1 (stereo not drawn) [nitrendipine] here?
A: -26.4%

Q: With Cc1cc2c(s1)Nc1ccccc1N=C2N1CCN(C)CC1 [olanzapine] as the compound, how does the inhibition at 10 µM read?
A: -53.5%

Q: Which inhibition at 10 µM does the source give for CCCc1nc(C(C)(C)O)c(C(=O)O)n1Cc1ccc(-c2ccccc2-c2nnn[nH]2)cc1 [olmesartan] here?
A: -34.8%

Same assay, conditions: Homo sapiens, K562, 48 h; read-out: Inhibition rate (%, 10 μM)

Q: COc1cc2c(cc1OC)[C@@]13CCN4CC5=CCO[C@H]6CC(=O)N2[C@H]1[C@H]6[C@H]5C[C@H]43 [brucine] was tested. Which inhibition at 10 µM did it give?
A: -63.5%
